In ChEMBL document CHEMBL1201862, “PubChem BioAssay data set” (2004):
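In this assay, cells in 96-well plates receive the compound at five concentrations for 48 hours. Endpoints are linearly interpolated between the surrounding concentrations. Here, GI50 denotes the concentration required for 50% inhibition of growth.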 Activity calls are given as the source filed them. Rule as the data show it: active = GI50 up to about 1.1 µM and inactive = higher.

Tests used:
Experiment in all cases: growth of human tumour cells (NCI), 48 h
[1] = tested on: ACHN
[2] = tested on: SN12C
[3] = tested on: OVCAR-8
[4] = tested on: HT-29
[5] = tested on: DU-145
[6] = tested on: HL-60
[7] = tested on: TK-10
[8] = tested on: M14
[9] = tested on: NCI-H522
[10] = tested on: SR
[11] = tested on: NCI/ADR-RES
[12] = tested on: COLO 205
[13] = tested on: HCT-116
[14] = tested on: KM12
[15] = tested on: HCT-15
[16] = tested on: OVCAR-4
[17] = tested on: UACC-257
[18] = tested on: Malme-3M
[19] = tested on: EKVX
[20] = tested on: SK-MEL-2
[21] = tested on: SNB-19
[22] = tested on: RXF 393
[23] = tested on: 786-0
[24] = tested on: CCRF-CEM
[25] = tested on: HOP-62
[26] = tested on: MOLT-4
[27] = tested on: IGROV-1
[28] = tested on: SNB-75
[29] = tested on: CAKI-1
[30] = tested on: BT-549
[31] = tested on: HOP-92
[32] = tested on: SW-620
[33] = tested on: MDA-MB-435
[34] = tested on: T47D
[35] = tested on: SF-539
[36] = tested on: MCF7
[37] = tested on: SF-268
[38] = tested on: UACC-62
[39] = tested on: UO-31
[40] = tested on: NCI-H460
[41] = tested on: A549
[42] = tested on: A498
[43] = tested on: SF-295
[44] = tested on: HCC 2998
[45] = tested on: SK-MEL-28
[46] = tested on: MDA-N
[47] = tested on: OVCAR-3
[48] = tested on: SK-OV-3
[49] = tested on: SK-MEL-5
[50] = tested on: NCI-H23
[51] = tested on: LOX IMVI
[52] = tested on: Hs-578T
[53] = tested on: NCI-H226
[54] = tested on: RPMI-8226
[55] = tested on: PC-3
[56] = tested on: K562
[57] = tested on: U-251
[58] = tested on: MDA-MB-231
[59] = tested on: OVCAR-5

Which results are given for COc1cc(C2c3cc4c(cc3OC(NNC(N)=O)C2C)OCO4)cc(OC)c1OC (configuration not stated)?
GI50 [1]: 0.557 µM (active); GI50 [2]: 0.404 µM (active); GI50 [3]: 0.356 µM (active); GI50 [4]: 0.145 µM (active); GI50 [5]: 0.585 µM (active); GI50 [6]: 0.11 µM (active); GI50 [7]: 34.7 µM (inactive); GI50 [8]: 0.115 µM (active); GI50 [9]: 0.104 µM (active); GI50 [10]: 0.0826 µM (active); GI50 [11]: 4.72 µM (inactive); GI50 [12]: 0.0982 µM (active); GI50 [13]: 0.13 µM (active); GI50 [14]: 0.107 µM (active); GI50 [15]: 0.274 µM; GI50 [16]: 11.8 µM (inactive); GI50 [17]: 0.603 µM (active); GI50 [18]: 0.828 µM (active); GI50 [19]: 2.35 µM (inactive); GI50 [20]: 1.26 µM (inactive); GI50 [21]: 0.452 µM (active); GI50 [22]: 0.525 µM (active); GI50 [23]: 0.185 µM (active); GI50 [24]: 0.109 µM (active); GI50 [25]: 0.118 µM (active); GI50 [26]: 0.235 µM (active); GI50 [27]: 0.427 µM (active); GI50 [28]: 0.18 µM (active); GI50 [29]: 0.634 µM (active); GI50 [30]: 2.03 µM (inactive); GI50 [31]: 0.0675 µM (active); GI50 [32]: 0.142 µM (active); GI50 [33]: 0.0586 µM (active); GI50 [34]: > 66.4 µM (inactive); GI50 [35]: 0.0689 µM (active); GI50 [36]: 0.136 µM (active); GI50 [37]: 0.518 µM (active); GI50 [38]: 0.179 µM (active); GI50 [39]: 1.07 µM (active); GI50 [40]: 0.179 µM (active); GI50 [41]: 0.276 µM (active); GI50 [42]: 0.0233 µM (active); GI50 [43]: 0.114 µM (active); GI50 [44]: 0.373 µM (active); GI50 [45]: 1.12 µM (inactive); GI50 [46]: 0.0362 µM (active); GI50 [47]: 0.0902 µM (active); GI50 [48]: 1.36 µM (inactive); GI50 [49]: 0.123 µM (active); GI50 [50]: 0.394 µM (active); GI50 [51]: 0.145 µM (active); GI50 [52]: 0.125 µM (active); GI50 [53]: 0.205 µM (active); GI50 [54]: 0.167 µM (active); GI50 [55]: 0.183 µM (active); GI50 [56]: 0.0817 µM (active); GI50 [57]: 0.126 µM (active)

With CNc1nc(C(N)=O)c(N)s1 as the compound, how does the GI50 [1] read?
Its GI50 is > 100 µM (inactive).

What about the GI50 [2] of the same compound?
The GI50 was > 100 µM (inactive).

And the GI50 [3]?
Its GI50 is > 100 µM (inactive).

What about the GI50 [4] of the same compound?
Its GI50 is > 100 µM (inactive).

What about the GI50 [5] of the same compound?
The GI50 was > 100 µM (inactive).

What about the GI50 [6] of the same compound?
Its GI50 is > 100 µM (inactive).

And the GI50 [7]?
Its GI50 is > 100 µM (inactive).

And the GI50 [8]?
Its GI50 is > 100 µM (inactive).

And the GI50 [9]?
The GI50 was > 100 µM (inactive).

What about the GI50 [11] of the same compound?
The GI50 was > 100 µM (inactive).

What about the GI50 [12] of the same compound?
Its GI50 is > 100 µM (inactive).

And the GI50 [13]?
The GI50 was > 100 µM (inactive).

And the GI50 [14]?
Its GI50 is > 100 µM (inactive).

And the GI50 [15]?
The GI50 was greater than 100 µM.

And the GI50 [16]?
Its GI50 is > 100 µM (inactive).

And the GI50 [17]?
Its GI50 is > 100 µM (inactive).

What about the GI50 [18] of the same compound?
Its GI50 is > 100 µM (inactive).

What about the GI50 [19] of the same compound?
Its GI50 is > 100 µM (inactive).

What about the GI50 [20] of the same compound?
Its GI50 is > 100 µM (inactive).

What about the GI50 [58] of the same compound?
Its GI50 is > 100 µM (inactive).

And the GI50 [21]?
Its GI50 is > 100 µM (inactive).

What about the GI50 [22] of the same compound?
The GI50 was > 100 µM (inactive).

And the GI50 [23]?
Its GI50 is > 100 µM (inactive).

What about the GI50 [24] of the same compound?
The GI50 was > 100 µM (inactive).

What about the GI50 [25] of the same compound?
Its GI50 is > 100 µM (inactive).

And the GI50 [26]?
The GI50 was > 100 µM (inactive).

And the GI50 [27]?
The GI50 was > 100 µM (inactive).

What about the GI50 [29] of the same compound?
The GI50 was > 100 µM (inactive).

And the GI50 [30]?
Its GI50 is > 100 µM (inactive).

What about the GI50 [31] of the same compound?
Its GI50 is > 100 µM (inactive).

And the GI50 [32]?
The GI50 was > 100 µM (inactive).

What about the GI50 [33] of the same compound?
The GI50 was > 100 µM (inactive).

What about the GI50 [34] of the same compound?
Its GI50 is > 100 µM (inactive).

What about the GI50 [35] of the same compound?
Its GI50 is > 100 µM (inactive).

What about the GI50 [37] of the same compound?
The GI50 was > 100 µM (inactive).

What about the GI50 [38] of the same compound?
The GI50 was > 100 µM (inactive).

What about the GI50 [39] of the same compound?
Its GI50 is > 100 µM (inactive).

What about the GI50 [40] of the same compound?
Its GI50 is > 100 µM (inactive).

What about the GI50 [41] of the same compound?
Its GI50 is > 100 µM (inactive).

What about the GI50 [42] of the same compound?
The GI50 was > 100 µM (inactive).

And the GI50 [43]?
The GI50 was > 100 µM (inactive).

And the GI50 [45]?
Its GI50 is > 100 µM (inactive).

And the GI50 [46]?
The GI50 was > 100 µM (inactive).

And the GI50 [47]?
Its GI50 is > 100 µM (inactive).

And the GI50 [48]?
Its GI50 is > 100 µM (inactive).

What about the GI50 [49] of the same compound?
Its GI50 is 84.9 µM (inactive).

What about the GI50 [50] of the same compound?
Its GI50 is > 100 µM (inactive).

What about the GI50 [51] of the same compound?
Its GI50 is > 100 µM (inactive).

And the GI50 [52]?
The GI50 was > 100 µM (inactive).

What about the GI50 [53] of the same compound?
Its GI50 is > 100 µM (inactive).

What about the GI50 [54] of the same compound?
The GI50 was > 100 µM (inactive).

And the GI50 [59]?
The GI50 was > 100 µM (inactive).

What about the GI50 [55] of the same compound?
Its GI50 is > 100 µM (inactive).

And the GI50 [56]?
The GI50 was > 100 µM (inactive).

What about the GI50 [57] of the same compound?
The GI50 was > 100 µM (inactive).

Which results are given for O=C(O)CC(Cc1ccccc1Cl)C(=O)O (configuration not stated)?
GI50 [1]: > 100 µM (inactive); GI50 [2]: > 100 µM (inactive); GI50 [3]: > 100 µM (inactive); GI50 [4]: > 100 µM (inactive); GI50 [5]: > 100 µM (inactive); GI50 [7]: > 100 µM (inactive); GI50 [8]: > 100 µM (inactive); GI50 [9]: > 100 µM (inactive); GI50 [11]: > 100 µM (inactive); GI50 [12]: > 100 µM (inactive); GI50 [13]: > 100 µM (inactive); GI50 [14]: > 100 µM (inactive); GI50 [15]: > 100 µM; GI50 [16]: > 100 µM (inactive); GI50 [17]: > 100 µM (inactive); GI50 [18]: > 100 µM (inactive); GI50 [19]: > 100 µM (inactive); GI50 [20]: > 100 µM (inactive); GI50 [58]: > 100 µM (inactive); GI50 [21]: > 100 µM (inactive); GI50 [22]: > 100 µM (inactive); GI50 [23]: > 100 µM (inactive); GI50 [24]: > 100 µM (inactive); GI50 [25]: > 100 µM (inactive); GI50 [26]: > 100 µM (inactive); GI50 [27]: > 100 µM (inactive); GI50 [29]: > 100 µM (inactive); GI50 [30]: > 100 µM (inactive); GI50 [31]: > 100 µM (inactive); GI50 [32]: > 100 µM (inactive); GI50 [33]: > 100 µM (inactive); GI50 [34]: > 100 µM (inactive); GI50 [36]: > 100 µM (inactive); GI50 [37]: > 100 µM (inactive); GI50 [38]: > 100 µM (inactive); GI50 [39]: > 100 µM (inactive); GI50 [40]: > 100 µM (inactive); GI50 [41]: > 100 µM (inactive); GI50 [42]: > 100 µM (inactive); GI50 [43]: > 100 µM (inactive); GI50 [44]: > 100 µM (inactive); GI50 [45]: > 100 µM (inactive); GI50 [46]: > 100 µM (inactive); GI50 [47]: > 100 µM (inactive); GI50 [48]: > 100 µM (inactive); GI50 [49]: > 100 µM (inactive); GI50 [50]: > 100 µM (inactive); GI50 [51]: > 100 µM (inactive); GI50 [52]: > 100 µM (inactive); GI50 [53]: > 100 µM (inactive); GI50 [54]: > 100 µM (inactive); GI50 [59]: > 100 µM (inactive); GI50 [55]: > 100 µM (inactive); GI50 [56]: > 100 µM (inactive); GI50 [57]: > 100 µM (inactive)
